What is called half-life is the time needed for the level to fall by half in the phase considered. What is called amount remaining is what is left of the initial amount, in per cent.

The structures appear in SMILES notation.

The test system of data set [1] is high fat fed NIH Swiss mice. As to the kind of experiment: 28 day long-term study of fatty acid apelin analogues, once daily i.p. administration. The format is in vivo. The source says:
NIH Swiss mice (Harlan UK Ltd., Blackthorne, UK) were derived from a nucleus colony obtained from the National Institute of Health, Bethesda, Md., USA. One group of mice were maintained on a standard rodent diet (10% fat, 30% protein, 60% carbohydrate; percent of total energy 12.99 kJ/g, Trouw Nutrition, Cheshire, UK) and used as a model of normal glycaemia. Other NIH Swiss mice were maintained on a high fat diet (45% fat, 20% protein, 35% carbohydrate; percent of total energy 26.15 kJ/g; Dietex, Essex, UK) from 8 weeks of age for 150 days to produce a model of diet induced obesity-diabetes. […] All mice were housed in an air-conditioned room maintained at 22±2° C. with a 12 h light: 12 h dark cycle (08:00-20:00 h), were singly caged, and selected for experimental groups according to body weight and non-fasted blood glucose. Drinking water and diet were freely available. All animal studies were performed in accordance with the UK Animals (Scientific Procedures) Act 1986.
For another 28 day long-term study of selected fatty acid apelin analogues administered once daily, normal control NIH Swiss (n=8) and high-fat fed NIH Swiss (n=8) were grouped and received once daily i.p. injections of saline vehicle (0.9% NaCl (w/v)) at 17:00 h over a 4 day run-in period. Following the run-in period, normal control (n=8) and high-fat fed mice (n=8) received once daily (17:00 h) i.p. administration of saline vehicle (0.9% NaCl (w/v)) for 28 days. Additional groups of high-fat fed mice (n=8) received once daily i.p. injections of (Lys^8gluPal)apelin-13-amide, pGlu(Lys^8gluPal)apelin-13-amide or liraglutide (each at 25 nmol/kg bw) over a 28 day treatment period.
Food intake, body weight, blood glucose and plasma insulin were monitored at intervals of 2-3 days throughout the run-in and 28 day treatment period. Blood samples for glucose and plasma insulin measurement were collected at intervals throughout the study from the cut tail vein of conscious mice. Following the 28 day treatment period, oral, i.p. and meal test glucose tolerance ([…].), and insulin sensitivity (25 U/kg bw) tests were performed. Glucose was measured using an Ascensia Contour meter and blood was collected and processed for plasma insulin analysis by radioimmunoassay. Body weight and fat mass was also assessed using the PIXImus DEXA scanner whilst energy expenditure, intake, food intake and feeding bouts were assessed using the CLAMS metabolic chamber. HbA1c was analysed post 28 days using Bayer A1C Now^+ Multi Test meter. Lipid profile test was obtained by using the iLab analyser. Cholesterol, triglyceride and HDL-cholesterol levels were measured, in plasma (3 μl), using the iLab analyser. LDL-cholesterol levels were obtained using the Friedewald equation=total cholesterol−HDL−(triglycerides/3).

Data set [2] deals with NIH Swiss mice fed a high-fat diet for 150 days. As to the kind of experiment: Acute and delayed i.p. glucose tolerance test, blood glucose and plasma insulin. The format is in vivo. How it is done: Plasma glucose and plasma insulin concentrations were measured prior to and after i.p. administration of glucose alone (18 mmol/kg body weight), or in combination with apelin analogues (25 nmol/kg body weight) in 18 h fasted mice fed a high-fat diet for 150 days. Values represent mean±SEM for eight mice (n=8). *P<0.05, **P<0.01 and ***P<0.001 compared to glucose alone. FIG. 6 illustrates effect of i.p. administration of glucose alone (18 mmol/kg body weight), ([…])apelin-13 and ([…])apelin-13 alone or in combination (each 25 nmol/kg body weight) on (A) blood glucose and (B) plasma insulin in 18 h fasted mice fed a high-fat diet for 150 days. Values represent mean±SEM for eight mice (n=8). *p<0.05 and **p<0.01 compared to glucose alone, ^+P<0.05 compared to ([…])apelin-13, ^∇P<0.05 and ^∇∇P<0.01 compared to ([…])apelin-13. FIG. 10 illustrates tests conducted 2 h after administration of apelin related analogues (25 nmol/kg body wt) in 18 h fasted mice fed a high-fat diet for 150 days. (A) Blood glucose and (B) plasma insulin was measured before and after i.p. administration of glucose (18 mmol/kg body wt) alone or in combination with apelin analogues. Values represent mean±SEM for eight mice (n=8). *P<0.05 and **P<0.01 compared to glucose alone. FIG. 11 illustrates tests conducted 8 h after administration of apelin related analogues (25 nmol/kg body wt) in 18 h fasted mice fed a high-fat diet for 150 days. (A) Blood glucose and (B) plasma insulin was measured before and after i.p. administration of glucose (18 mmol/kg body wt) alone or in combination with apelin analogues. Values represent mean±SEM for eight mice (n=8). *P<0.05 and **P<0.01 compared to glucose alone. FIG. 12 illustrates acute effects of fatty acid modified apelin analogues on glucose-lowering and insulin release in high fat fed Swiss NIH mice with dietary-induced diabetes. (A) Blood glucose and (B) plasma insulin concentrations were measured prior to and after i.p. administration of glucose alone (18 mmol/kg body weight), or in combination with apelin analogues (25 nmol/kg body weight) in 18 h fasted mice fed a high-fat diet for 150 days. Values represent mean±SEM for eight mice (n=8). *P<0.05, compared to glucose alone. FIG. 13 illustrates tests conducted 16 h after administration of fatty acid apelin analogues (25 nmol/kg body wt) in mice fed a high-fat diet for 150 days. (A) Blood glucose and (B) plasma insulin was measured before and after i.p. administration of glucose (18 mmol/kg body wt) alone or in combination with apelin analogues. Values represent mean±SEM for eight mice (n=8). *P<0.05, **P<0.01 and ***P<0.001 compared to glucose alone. NIH Swiss mice (Harlan UK Ltd., Blackthorne, UK) were derived from a nucleus colony obtained from the National Institute of Health, Bethesda, Md., USA. One group of mice were maintained on a standard rodent diet (10% fat, 30% protein, 60% carbohydrate; percent of total energy 12.99 kJ/g, Trouw Nutrition, Cheshire, UK) and used as a model of normal glycaemia. Other NIH Swiss mice were maintained on a high fat diet (45% fat, 20% protein, 35% carbohydrate; percent of total energy 26.15 […], UK) from 8 weeks of age for 150 days to produce a model of diet induced obesity-diabetes. […] All mice were housed in an air-conditioned room maintained at 22±2° C. with a 12 h light: 12 h dark cycle (08:00-20:00 h), were singly caged, and selected for experimental groups according to body weight and non-fasted blood glucose. Drinking water and diet were freely available. All animal studies were performed in accordance with the UK Animals (Scientific Procedures) Act 1986. For acute in vivo studies, blood samples were collected from the cut tip of the tail vain of fasted, conscious mice into fluoride/heparin coated glucose microcentrifuge tubes (Sarstedt, Germany) immediately prior to (t=0) and at 15, 30, 60 and 105 min following i.p. injection of glucose ([…]).

Data set [3] can be described thus: Degradation of apelin peptides by plasma from fasted normal NIH Swiss mice (rp-HPLC, MALDI-TOF MS). The format is in vitro ADME. As to the method:
Degradation of Apelin Peptides by Plasma from Fasted Normal NIH Swiss Mice […] The enzymatic reaction was stopped by adding 50 μl of 10% TFA (0.1% v/v; Sigma-Aldrich Ltd, (Poole, Dorset, UK) and frozen at -20° C. until separation. The terminated reaction products were then applied to an analytical Vydac C-8 column (4.6×150 mm; Phenomenex, Macclesfield, Cheshire, UK) for rp-HPLC analysis. The absorbance was monitored at 214 nm using a […] UV 2000 detector (Thermoquest Limited, Manchester, UK) and the traces were recorded by Thermo Electron ChromQuest data collection software (version 4). HPLC peak fractions were collected manually and subjected to MALDI-TOF mass spectrometry for peptide identification. Degradation profile of various apelin-13 related analogues: plasma incubations (4 h) were separated on a Vydac C-8 analytical HPLC column and all peaks were collected prior to analysis by MALDI-TOF mass spectrometry. Degradation fragments, actual molecular weights (Mr) and retention times (RT) are shown. Theoretical molecular weights of each fragment are shown in brackets. […] Degradation fragments, theoretical molecular weights (Mr) and retention times (RT) are shown. Theoretical molecular weights of each fragment are shown in brackets.

Setting [4] is: once daily 25 nmol/kg bw, 28 days.
Setting [5] is: fatty acid derived agonists, 16 h delayed i.p. glucose tolerance test, 25 nmol/kg.
Where [6] appears, read: fatty acid derived agonists, acute i.p. glucose tolerance test, 25 nmol/kg.
[7] abbreviates: NIH Swiss, mouse, plasma, pH 7.4.
[8] abbreviates: acute, peptide 25 nmol/kg i.p. with glucose 18 mmol/kg, Table 4.
[9] abbreviates: following a 2 h delay, 25 nmol/kg.
[10] abbreviates: following a 8 h delay, 25 nmol/kg.

On to `CCCCCCCCCCCCCCCC(=O)N[C@@H](CCC(=O)NCCCC[C@H](NC(=O)[C@H](Cc1c[nH]cn1)NC(=O)[C@H](CO)NC(=O)[C@H](CC(C)C)NC(=O)[C@H](CCCNC(=N)N)NC(=O)[C@@H]1CCCN1C(=O)[C@H](CCCNC(=N)N)NC(=O)[C@@H](N)CCC(N)=O)C(=O)NCC(=O)N1CCC[C@H]1C(=O)N[C@@H](CCSC)C(=O)N1CCC[C@H]1C(=O)N[C@@H](Cc1ccccc1)C(N)=O)C(=O)O` [(Lys^8GluPAL)apelin-13-amide], for which the Percentage fat mass in data set [1] (after 28 days, DEXA analysis) is recorded as 30.8%. Further, the Insulin sensitivity entry in data set [1] (after 28 days, insulin 25 U/kg bw) is “significantly improved”. Besides, the “Glucose tolerance and plasma insulin excursion in response to an i.p and oral glucose challenge” value in data set [1] (after the 28 day treatment period) is reported as “significantly improved”. Further, the “HDL-cholesterol levels compared to the lean control and high fat fed mice” value in data set [1] (once daily) is given as “significantly increased”. Besides, in data set [1] (setting [4]), the Bodyweight reduction entry is “approximately 4%”; the “Day of study at which bodyweight was significantly decreased” value was determined as 21 days; the “Day of study at which circulating blood glucose began to be significantly reduced and plasma insulin increased” value worked out at 10 days; the “Day of study at which food intake was significantly reduced” value was 8 days. The “LDL-cholesterol levels compared to the high fat fed controls” value in data set [1] (once daily, Friedewald equation) is given as “significantly lowered”. The Plasma triglyceride levels entry in data set [1] (once daily, high-fat fed mice) is given as “significantly lower”. Further, the “Rank order on basis of anti-hyperglycaemic efficacy” value (“Rank order on basis” below) in data set [2] (fatty acid derived agonists, 16 h delay) was 2. In data set [2] (setting [5]), the “Blood glucose as percent of glucose-alone control (lower = stronger glucose lowering)” value is listed as 61% (**) and the “Insulin secretion, where glucose alone = 100%” value was 156% (***). In data set [2] (fatty acid derived agonists, acute), the “Rank order on basis” value is recorded as 2. Moreover, in data set [2] (setting [6]), the “Glucose lowering, where glucose alone = 100%” value is recorded as 85% and the “Insulin secretion, where glucose alone = 100%” value came out at 110%. The “Rank order of stability” value in data set [3] is on record as “=1”. In data set [3] (NIH Swiss, mouse, plasma, 263 µg/mL, pH 7.4), the “Half-life (t1/2)” value is more than 24 h. In data set [3] (setting [7]), this molecule showed a half-life at 263 µg/mL of more than 1440 min and an amount remaining at 4 h, 263 µg/mL of 100%.
With `CSCC[C@H](NC(=O)[C@@H]1CCCN1C(=O)CNC(=O)[C@H](CCCCN)NC(=O)[C@H](Cc1c[nH]cn1)NC(=O)[C@H](CO)NC(=O)[C@H](CC(C)C)NC(=O)[C@H](CCCNC(=N)N)NC(=O)[C@@H]1CCCN1C(=O)[C@H](CCCNC(=N)N)NC(=O)[C@@H]1CCC(=O)N1)C(=O)N1CCC[C@H]1C(=O)N[C@@H](Cc1ccc(O)cc1)C(=O)O` [pGlu(Tyr^13)apelin-13, pGlu (Tyr^13)apelin-13], the “Rank order on basis” value in data set [2] (acute, Table 4) was found to be 3. Moreover, in data set [2] (setting [8]), the “Blood glucose as percent of glucose-alone control (lower = stronger glucose lowering)” value is reported as 71% (*) and the “Insulin secretion, where glucose alone = 100%” value is on record as 138% (**). Besides, in data set [2] (following a 2 h delay), the “Rank order on basis” value is 3. Moreover, in data set [2] (setting [9]), the “Blood glucose as percent of glucose-alone control (lower = stronger glucose lowering)” value is 78% (**) and the “Insulin secretion, where glucose alone = 100%” value is on record as 142% (**). In addition, the “Rank order on basis” value in data set [2] (following a 8 h delay) came out at 2. Also, in data set [2] (setting [10]), the “Blood glucose as percent of glucose-alone control (lower = stronger glucose lowering)” value is reported as 86% (*) and the “Insulin secretion, where glucose alone = 100%” value is listed as 112%. Moreover, in data set [3], the “Degradation fragment, Peak 1” value is “(1-5)”; the “Degradation fragment, Peak 2” value is “(1-6)”; the “Degradation fragment, Peak 3” value is “(1-12)”; the “Rank order of stability” value was found to be 4. In data set [3] (setting [7]), this molecule gave a half-life at 263 µg/mL of 732 min and an amount remaining at 4 h, 263 µg/mL of 79 ± 0.6%.

For the origin of these results see patent US10118954B2, “Apelin analogues” (University of Ulster, priority 2014, dated 2018).
